The test system of this data set is CCRIS mutagenicity, Ames/micronucleus/aberration tests. Kind of data set: CCRIS mutagenicity studies.
Where [1] appears, read: Test System: AMES SALMONELLA TYPHIMURIUM, Strain/Indicator: TA100, Metabolic Activation: NONE, Method: STANDARD PLATE.
[2] abbreviates: Test System: AMES SALMONELLA TYPHIMURIUM, Strain/Indicator: TA98, Metabolic Activation: NONE, Method: PREINCUBATION
The mark [3] stands for this setting: Test System: AMES SALMONELLA TYPHIMURIUM, Strain/Indicator: TA98, Metabolic Activation: RAT, LIVER, S-9, PCB, Method: PREINCUBATION
[4] abbreviates: Test System: AMES SALMONELLA TYPHIMURIUM, Strain/Indicator: TA100, Metabolic Activation: NONE, Method: PREINCUBATION
[5] abbreviates: Test System: AMES SALMONELLA TYPHIMURIUM, Strain/Indicator: TA100, Metabolic Activation: RAT, LIVER, S-9, PCB, Method: PREINCUBATION
[6] abbreviates: Test System: AMES SALMONELLA TYPHIMURIUM, Strain/Indicator: TA1535, Metabolic Activation: NONE, Method: PREINCUBATION
[7] abbreviates: Test System: AMES SALMONELLA TYPHIMURIUM, Strain/Indicator: TA1537, Metabolic Activation: NONE, Method: PREINCUBATION

The source made the active and inactive calls. The rule behind the calls is not given here.

As to `CC(C)(C)c1cc(Cc2cc(C(C)(C)C)c(O)c(C(C)(C)C)c2)cc(C(C)(C)C)c1O`, the mutagenic call runs as follows: (Test System: AMES SALMONELLA TYPHIMURIUM, Strain/Indicator: TA97, Metabolic Activation: NONE, Method: STANDARD PLATE) “inactive; negative”; (Test System: AMES SALMONELLA TYPHIMURIUM, Strain/Indicator: TA97, Metabolic Activation: S-9, Method: STANDARD PLATE) “inactive; negative”; (Test System: AMES SALMONELLA TYPHIMURIUM, Strain/Indicator: TA98, Metabolic Activation: NONE, Method: STANDARD PLATE) “inactive; negative”; (Test System: AMES SALMONELLA TYPHIMURIUM, Strain/Indicator: TA98, Metabolic Activation: S-9, Method: STANDARD PLATE) “inactive; negative”; under setting [1], “inactive; negative”; (Test System: AMES SALMONELLA TYPHIMURIUM, Strain/Indicator: TA100, Metabolic Activation: S-9, Method: STANDARD PLATE) “inactive; negative”. Further, the mutagenic call reads like this: (Test System: AMES SALMONELLA TYPHIMURIUM, Strain/Indicator: TA102, Metabolic Activation: NONE, Method: STANDARD PLATE) “inactive; negative”; (Test System: AMES SALMONELLA TYPHIMURIUM, Strain/Indicator: TA102, Metabolic Activation: S-9, Method: STANDARD PLATE) “inactive; negative”; (Test System: E.COLI, Strain/Indicator: WP2 (PKM101), Metabolic Activation: NONE, Method: STANDARD PLATE) “inactive; negative”; (Test System: E.COLI, Strain/Indicator: WP2 (PKM101), Metabolic Activation: S-9, Method: STANDARD PLATE) “inactive; negative”.
On to `CC(C)(C)C(=O)C(Oc1ccc(Cl)cc1)n1ccnc1` (centres undefined), for which the mutagenic call is, setting by setting: under setting [2], “inactive; negative”; under setting [3], “inactive; negative”; under setting [4], “inactive; negative”; under setting [5], “inactive; negative”; under setting [6], “inactive; negative”; (Test System: AMES SALMONELLA TYPHIMURIUM, Strain/Indicator: TA1535, Metabolic Activation: RAT, LIVER, S-9, PCB, Method: PREINCUBATION) “inactive; negative”. The mutagenic call under setting [7] is “inactive; negative”; the mutagenic call (Test System: AMES SALMONELLA TYPHIMURIUM, Strain/Indicator: TA1537, Metabolic Activation: RAT, LIVER, S-9, PCB, Method: PREINCUBATION) was “inactive; negative”; the mutagenic call (Test System: AMES SALMONELLA TYPHIMURIUM, Strain/Indicator: TA1538, Metabolic Activation: NONE, Method: PREINCUBATION) was “inactive; negative”; the mutagenic call (Test System: AMES SALMONELLA TYPHIMURIUM, Strain/Indicator: TA1538, Metabolic Activation: RAT, LIVER, S-9, PCB, Method: PREINCUBATION) is “inactive; negative”; the mutagenic call (Test System: Ames Salmonella typhimurium, Strain/Indicator: TA98, Metabolic Activation: None, Method: Plate incorporation) is “inactive; negative”; the mutagenic call (Test System: Ames Salmonella typhimurium, Strain/Indicator: TA98, Metabolic Activation: None, Method: Preincubation) is “inactive; negative”. For the same compound, the mutagenic call (Test System: Ames Salmonella typhimurium, Strain/Indicator: TA98, Metabolic Activation: Rat, Liver, S-9, Aroclor, Method: Plate incorporation) is “inactive; negative”; the mutagenic call (Test System: Ames Salmonella typhimurium, Strain/Indicator: TA98, Metabolic Activation: Rat, Liver, S-9, Aroclor, Method: Preincubation) was “inactive; negative”; the mutagenic call (Test System: Ames Salmonella typhimurium, Strain/Indicator: TA100, Metabolic Activation: None, Method: Plate incorporation) was “inactive; negative”; the mutagenic call (Test System: Ames Salmonella typhimurium, Strain/Indicator: TA100, Metabolic Activation: None, Method: Preincubation) was “inactive; negative”; the mutagenic call (Test System: Ames Salmonella typhimurium, Strain/Indicator: TA100, Metabolic Activation: Rat, Liver, S-9, Aroclor, Method: Plate incorporation) is “inactive; negative”; the mutagenic call (Test System: Ames Salmonella typhimurium, Strain/Indicator: TA100, Metabolic Activation: Rat, Liver, S-9, Aroclor, Method: Preincubation) is “inactive; negative”. Also, the mutagenic call by setting is: (Test System: Ames Salmonella typhimurium, Strain/Indicator: TA1535, Metabolic Activation: None, Method: Plate incorporation) “inactive; negative”; (Test System: Ames Salmonella typhimurium, Strain/Indicator: TA1535, Metabolic Activation: None, Method: Preincubation) “inactive; negative”; (Test System: Ames Salmonella typhimurium, Strain/Indicator: TA1535, Metabolic Activation: Rat, Liver, S-9, Aroclor, Method: Plate incorporation) “inactive; negative”; (Test System: Ames Salmonella typhimurium, Strain/Indicator: TA1535, Metabolic Activation: Rat, Liver, S-9, Aroclor, Method: Preincubation) “inactive; negative”; (Test System: Ames Salmonella typhimurium, Strain/Indicator: TA1537, Metabolic Activation: None, Method: Plate incorporation) “inactive; negative”; (Test System: Ames Salmonella typhimurium, Strain/Indicator: TA1537, Metabolic Activation: None, Method: Preincubation) “inactive; negative”. For the same compound, the mutagenic call runs as follows: (Test System: Ames Salmonella typhimurium, Strain/Indicator: TA1537, Metabolic Activation: Rat, Liver, S-9, Aroclor, Method: Plate incorporation) “inactive; negative”; (Test System: Ames Salmonella typhimurium, Strain/Indicator: TA1537, Metabolic Activation: Rat, Liver, S-9, Aroclor, Method: Preincubation) “inactive; negative”; (Test System: E. COLI, Strain/Indicator: WP2 UVRA, Metabolic Activation: NONE, Method: PREINCUBATION) “inactive; negative”; (Test System: E. coli, Strain/Indicator: WP2uvrA (pKM101), Metabolic Activation: None, Method: Plate incorporation) “inactive; negative”; (Test System: E. coli, Strain/Indicator: WP2uvrA (pKM101), Metabolic Activation: None, Method: Preincubation) “inactive; negative”; (Test System: E. coli, Strain/Indicator: WP2uvrA (pKM101), Metabolic Activation: Rat, Liver, S-9, Aroclor, Method: Plate incorporation) “inactive; negative”. The mutagenic call by setting is: (Test System: E. coli, Strain/Indicator: WP2uvrA (pKM101), Metabolic Activation: Rat, Liver, S-9, Aroclor, Method: Preincubation) “inactive; negative”; (Test System: In vitro micronucleus, Strain/Indicator: Human lymphocytes, Metabolic Activation: None) “inactive; negative”; (Test System: In vivo micronucleus, Species: Mouse, Strain/Sex: ICR/Male, Route: Oral (gavage)) “inactive; negative”; (Test System: Mouse lymphoma L5178Y/TK+/- cells, Strain/Indicator: WP2 uvrA (pKM101), Metabolic Activation: Rat, Liver, S-9, Aroclor 1254, Method: Suspension/plate) “inactive; negative”; (Test System: UDS Rat hepatocytes, Strain/Indicator: Thymidine incorporation, Method: In vivo - in vitro, measurement by autoradiography) “active; positive”.
Take `OCCN1CN(CCO)CN(CCO)C1`: the mutagenic call (Test System: AMES SALMONELLA TYPHIMURIUM, Strain/Indicator: TA98, Metabolic Activation: HAMSTER, LIVER, S-9, AROCLOR 1254 (10%), Method: PREINCUBATION) is “inactive; negative”; the mutagenic call under setting [2] was “inactive; negative”; the mutagenic call (Test System: AMES SALMONELLA TYPHIMURIUM, Strain/Indicator: TA98, Metabolic Activation: RAT, LIVER, S-9, AROCLOR 1254 (10%), Method: PREINCUBATION) is “inactive; negative”; the mutagenic call (Test System: AMES SALMONELLA TYPHIMURIUM, Strain/Indicator: TA100, Metabolic Activation: HAMSTER, LIVER, S-9, AROCLOR 1254 (10%), Method: PREINCUBATION) is “active; positive”; the mutagenic call under setting [4] is “inactive; negative”; the mutagenic call (Test System: AMES SALMONELLA TYPHIMURIUM, Strain/Indicator: TA100, Metabolic Activation: RAT, LIVER, S-9, AROCLOR 1254 (10%), Method: PREINCUBATION) is “inactive; negative”. The mutagenic call is, setting by setting: (Test System: AMES SALMONELLA TYPHIMURIUM, Strain/Indicator: TA1535, Metabolic Activation: HAMSTER, LIVER, S-9, AROCLOR 1254 (10%), Method: PREINCUBATION) “inactive; negative”; under setting [6], “inactive; negative”; (Test System: AMES SALMONELLA TYPHIMURIUM, Strain/Indicator: TA1535, Metabolic Activation: RAT, LIVER, S-9, AROCLOR 1254 (10%), Method: PREINCUBATION) “inactive; negative”; (Test System: AMES SALMONELLA TYPHIMURIUM, Strain/Indicator: TA1537, Metabolic Activation: HAMSTER, LIVER, S-9, AROCLOR 1254 (10%), Method: PREINCUBATION) “inactive; negative”; under setting [7], “inactive; negative”; (Test System: AMES SALMONELLA TYPHIMURIUM, Strain/Indicator: TA1537, Metabolic Activation: RAT, LIVER, S-9, AROCLOR 1254 (10%), Method: PREINCUBATION) “inactive; negative”.
Regarding `Clc1nncc2ccncc12`, the mutagenic call is, setting by setting: under setting [2], “inactive; negative”; under setting [3], “inactive; negative”; under setting [4], “inactive; negative”; under setting [5], “inactive; negative”.
Take `O=C1NC(=O)C(CBr)=C1Cl`: under setting [1], the mutagenic call was “active; positive”.
Regarding `C/C(O)=C1/C(=O)[C@@H]2[C@H]3c4c[nH]c5cccc(c45)C[C@H]3C(C)(C)N2C1=O`, the mutagenic call was “inactive; negative” under setting [4] and “inactive; negative” (Test System: AMES SALMONELLA TYPHIMURIUM, Strain/Indicator: TA100, Metabolic Activation: RAT, LIVER, S-9, PHENOBARBITAL, Method: PREINCUBATION).

For the origin of these results see PubChem BioAssay AID1259407 (Chemical Carcinogenesis Research Information System (CCRIS), 2018).
